Laboratory results as given in patent US7161032B2, “Sulfonamide derivatives, insecticides for agricultural and horticultural use, and usage thereof” (Nihon Nohyaku Co., Ltd., priority 2002, dated 2007).

Key:
Type in all cases: in vivo
[1] = system: Diamond Back Moth (Plutella xylostella); assay: Insecticidal effect on diamond back moth (Test Example 1): egg-bearing Chinese cabbage seedling immersed in 50 ppm liquid chemical
How it was run: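 Seedlings bearing 2-day-old eggs dipped about 30 s in 50 ppm formulated compound, air-dried, held at 25° C. Hatched larvae counted 6 days after immersion; mortality calculated and graded by criterion. Triplicate groups of 10 insects.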

[2] = system: Common Cutworm (Spodoptera litura); assay: Insecticidal effect on common cutworm (Test Example 2): cabbage leaf piece immersed in 50 ppm liquid chemical; details: common cutworm (Spodoptera litura) second-instar larvae, 8 days after inoculation, 25° C.
How it was run: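 Cabbage leaf pieces (cv. Shikidori) dipped ~30 s in formulated compound at 50 ppm and air-dried. Second-instar larvae added, kept at 25° C. Dead and alive counted at 8 days to give % mortality, scored against a criterion scale; three groups of 10 insects.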

[3] = system: Smaller Tea Tortrix (Adoxophyes sp.); assay: Insecticidal effect on smaller tea tortrix (Test Example 3): tea leaves immersed in 50 ppm liquid chemical; details: smaller tea tortrix (Adoxophyes sp.) larvae, 8 days after inoculation, 25° C., humidity 70%
How it was run: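 Tea leaves dipped about 30 seconds in 50 ppm compound preparation, air-dried, then infested with larvae and held at 25° C and 70% humidity. Dead and alive counted 8 days after inoculation; triplicate groups of 10 insects.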

Cc1cc(C(F)(F)C(F)(F)F)ccc1NC(=O)c1cccc(I)c1C(=O)NC(C)(C)CS(=O)(=O)NCCSc1ccccc1 [1-310]
A (Mortality 100%): Insecticidal effect (mortality grade), Test Example 1 [1] | Insecticidal effect (mortality grade), Test Example 2 [2] | Insecticidal effect (mortality grade), Test Example 3 [3]

Cc1cc(C(C(F)(F)F)C(F)(F)F)ccc1NC(=O)c1cccc(I)c1C(=O)NC(C)CS(N)(=O)=O (stereo not drawn) [1-342]
A (Mortality 100%): Insecticidal effect (mortality grade), Test Example 1 [1] | Insecticidal effect (mortality grade), Test Example 2 [2] | Insecticidal effect (mortality grade), Test Example 3 [3]

CCN(CC)S(=O)(=O)CC(C)(C)NC(=O)c1c(I)cccc1C(=O)Nc1ccc(C(C(F)(F)F)C(F)(F)F)cc1C [1-344]
A (Mortality 100%): Insecticidal effect (mortality grade), Test Example 1 [1] | Insecticidal effect (mortality grade), Test Example 2 [2] | Insecticidal effect (mortality grade), Test Example 3 [3]

Cc1cc(C(C(F)(F)F)C(F)(F)F)ccc1NC(=O)c1cccc(I)c1C(=O)NC(C)(C)CS(=O)(=O)N1CCCC1 [1-345]
A (Mortality 100%): Insecticidal effect (mortality grade), Test Example 1 [1] | Insecticidal effect (mortality grade), Test Example 2 [2] | Insecticidal effect (mortality grade), Test Example 3 [3]
